In ChEMBL document CHEMBL3286224, “Optimization of ketone-based P2Y(12) receptor antagonists as antithrombotic agents: pharmacodynamics and receptor kinetics considerations” (Bioorg Med Chem Lett, 2014):
In brackets after ≈: the same amount, converted by molar mass. Activity calls are given as the source filed them. The calls are words filed in the database; no cut-off is given here.

What was measured:
P2Y purinoceptor 12 [1] = molecular target: T1, P2Y purinoceptor 12 (Homo sapiens, UniProt Q9H244); assay: Displacement of [125I]AZ11931285 from human P2Y12 receptor expressed in CHOK1 cell membrane after 30 seconds; design: species or system CHO-K1
T1 sequence (Q9H244 whole entry): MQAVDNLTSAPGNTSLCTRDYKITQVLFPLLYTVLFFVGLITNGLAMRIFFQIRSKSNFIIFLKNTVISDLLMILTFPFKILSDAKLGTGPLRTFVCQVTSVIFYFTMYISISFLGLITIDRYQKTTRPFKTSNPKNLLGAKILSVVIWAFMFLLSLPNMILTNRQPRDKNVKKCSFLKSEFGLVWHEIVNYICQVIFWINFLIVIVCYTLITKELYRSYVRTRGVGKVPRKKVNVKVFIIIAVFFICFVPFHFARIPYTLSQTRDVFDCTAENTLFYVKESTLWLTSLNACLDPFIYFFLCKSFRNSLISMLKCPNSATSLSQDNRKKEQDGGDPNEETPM

P2Y purinoceptor 12 [2] = molecular target: T1, P2Y purinoceptor 12; assay: Displacement of [125I]AZ11931285 from human P2Y12 receptor expressed in CHOK1 cell membrane after 60 mins; design: species or system CHO-K1
Plasma = assay: Fraction unbound in Beagle dog plasma at 37 degC after 18 hrs by equilibrium dialysis technique; format: ADME, cell-free, Canis lupus familiaris
P2Y purinoceptor 12 [3] = molecular target: T1, P2Y purinoceptor 12; assay: Displacement of [125I]AZ11931285 from human P2Y12 receptor expressed in CHOK1 cell membrane after 10 seconds; design: species or system CHO-K1
in vitro [4] = conditions: human, liver microsomes
Description: Half life in human liver microsomes at 1 mg/ml

[5] = Half life in Beagle dog at 1 umol/kg, iv; format: ADME, organism-based, Canis lupus familiaris; conditions: in vivo
in vitro [6] = conditions: human, Caco-2, pH 7.4
Description: (§1) Apparent permeability from apical to basolateral side in human Caco2 cells at 10 uM at pH 7.4 after 60 mins by LC-MS analysis

[7] = molecular target: Platelet-activating factor receptor (Homo sapiens) (UniProt P25105); assay: Binding affinity to PAF receptor (unknown origin) at 10 uM
Sequence of Platelet-activating factor receptor (Homo sapiens) (P25105 whole entry): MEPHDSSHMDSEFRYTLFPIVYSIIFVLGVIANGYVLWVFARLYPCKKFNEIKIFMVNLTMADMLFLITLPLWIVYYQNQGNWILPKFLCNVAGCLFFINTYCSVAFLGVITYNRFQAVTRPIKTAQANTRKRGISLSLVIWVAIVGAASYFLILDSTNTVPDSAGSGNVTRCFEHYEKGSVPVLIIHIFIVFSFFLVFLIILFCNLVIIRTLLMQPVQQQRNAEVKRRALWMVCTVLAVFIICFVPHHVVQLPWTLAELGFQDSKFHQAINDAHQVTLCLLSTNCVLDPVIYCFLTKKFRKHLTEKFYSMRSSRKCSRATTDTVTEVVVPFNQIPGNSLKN

Canis familiaris [8] = assay: Toxicity in dog Folt's model of arterial thrombosis assessed as prolongation of bleeding time at 0.015 umol/kg/min; format: organism-based, Canis lupus familiaris; conditions: in vivo, iv
P2Y purinoceptor 12 [9] = molecular target: T1, P2Y purinoceptor 12
Description: Antagonist activity at P2Y12 receptor (unknown origin) assessed as inhibition of ADP-induced [35S]GTPgammaS binding after 45 mins by scintillation counting analysis

Canis familiaris [10] = assay: Antithrombotic activity in conscious dog assessed as inhibition of platelet aggregation administered via infusion; format: functional, Canis lupus familiaris
[11] = Aqueous solubility of the compound; format: physicochemical; conditions: buffer
[12] = molecular target: T2, Thromboxane A2 receptor (Homo sapiens) (UniProt P21731); assay: Binding affinity to thromboxane A2 receptor (unknown origin) at 10 uM
T2 sequence (whole entry): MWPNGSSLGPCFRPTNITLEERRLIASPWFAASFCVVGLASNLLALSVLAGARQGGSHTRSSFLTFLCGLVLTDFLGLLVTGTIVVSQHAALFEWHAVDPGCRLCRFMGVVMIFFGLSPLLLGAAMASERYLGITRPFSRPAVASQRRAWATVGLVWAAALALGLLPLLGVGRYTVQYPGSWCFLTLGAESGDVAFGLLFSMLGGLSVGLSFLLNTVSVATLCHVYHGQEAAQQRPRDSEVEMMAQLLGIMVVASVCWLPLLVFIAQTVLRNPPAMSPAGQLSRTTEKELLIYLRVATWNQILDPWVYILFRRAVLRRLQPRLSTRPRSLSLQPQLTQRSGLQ

Canis familiaris [13] = assay: Toxicity in conscious dog assessed as prolongation of bleeding time at 1.6 umol/kg/min administered via infusion relative to control; format: organism-based, Canis lupus familiaris; conditions: in vivo, iv
Canis familiaris [14] = species on record: Canis familiaris; assay: Antithrombotic activity in dog Folt's model of arterial thrombosis assessed as inhibition of platelet aggregation; format: functional, Canis lupus familiaris
[15] = AUC in Beagle dog at 1 umol/kg, iv; format: ADME, organism-based, Canis lupus familiaris; conditions: plasma
[16] = molecular target: P2Y purinoceptor 1 (Homo sapiens) (UniProt P47900); assay: Binding affinity to P2Y1 receptor (unknown origin) at 10 uM
Sequence of P2Y purinoceptor 1 (Homo sapiens) (P47900 whole entry): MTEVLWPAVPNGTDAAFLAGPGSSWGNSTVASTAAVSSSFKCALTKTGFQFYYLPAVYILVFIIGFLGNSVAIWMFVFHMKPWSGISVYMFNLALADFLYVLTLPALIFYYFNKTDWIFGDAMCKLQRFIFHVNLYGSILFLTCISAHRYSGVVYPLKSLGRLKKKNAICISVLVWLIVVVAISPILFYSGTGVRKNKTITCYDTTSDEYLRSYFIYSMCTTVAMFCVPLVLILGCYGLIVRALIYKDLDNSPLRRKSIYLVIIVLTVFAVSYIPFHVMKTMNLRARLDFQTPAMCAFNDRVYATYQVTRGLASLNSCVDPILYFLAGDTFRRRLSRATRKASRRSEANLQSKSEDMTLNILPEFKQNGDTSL

P2Y purinoceptor 12 [17] = molecular target: T1, P2Y purinoceptor 12; assay: Displacement of [125I]AZ11931285 from human P2Y12 receptor expressed in CHOK1 cell membrane after 60 seconds; design: species or system CHO-K1
physchem = conditions: buffer, pH 7.4
Description: Lipophilicity, log D of the compound at pH 7.4 by HPLC analysis

[18] = Apparent permeability from apical to basolateral side in human Caco2 cells at 10 uM at pH 6.5 after 60 mins by LC-MS analysis; format: ADME, cell-based; conditions: Caco-2, pH 6.5
Caco-2 = conditions: human, caco-2, pH 7.4, 1 h, 10 µM
Description: as §1

Canis familiaris [19] = assay: Toxicity in dog Folt's model of arterial thrombosis assessed as prolongation of bleeding time at 0.001 to 0.1 umol/kg/min; format: organism-based, Canis lupus familiaris; conditions: in vivo, iv
Canis familiaris [20] = assay: Toxicity in conscious dog assessed as prolongation of bleeding time at 0.02 to 8700 nmol/kg/min administered via infusion relative to control; format: organism-based, Canis lupus familiaris; conditions: in vivo, iv

Row | SMILES | half-life (in vitro [4]) [h] | Papp A→B at 1 h, 10 µM (in vitro [6]) [×10⁻⁶ cm/s] | IC50 (P2Y purinoceptor 12 [9]) [µM] | solubility [11] [µM] | logD (physchem) | Papp A→B at 1 h, 10 µM [18] [×10⁻⁶ cm/s] | further results
1 | CCCC(=O)c1cc(C#N)c(N2CCC(C(=O)NS(=O)(=O)C3(c4ccccc4)CC3)CC2)nc1SC | > 1.92 | 2 | 0.019 | 78 (≈ 41.1 µg/mL) |  |  | IC50 (P2Y purinoceptor 12 [1]): 0.041 µM; IC50 (P2Y purinoceptor 12 [2]): 0.004 µM; Fu (Plasma): 0.41%; IC50 (P2Y purinoceptor 12 [3]): 0.126 µM; half-life [5]: 5.2 h; Activity [7]: inactive; Activity (Canis familiaris [8]): Toxic; ID80 (Canis familiaris [10]): 0.052 µmol/kg/min; inhibition (Canis familiaris [10]; Canis lupus familiaris): Dose-dependent effect; Activity [12]: inactive; fold change (FC) (Canis familiaris [13]): 6.7; ID80 (Canis familiaris [14]): 0.005 µmol/kg/min; AUC [15]: 6.7 µM·h; Activity [16]: inactive; IC50 (P2Y purinoceptor 12 [17]): 0.023 µM
2 | CCCC(=O)c1cc(C#N)c(N2CCC(C(=O)NS(=O)(=O)Cc3ccc(C)c(F)c3)CC2)nc1C | > 1.92 |  | 0.13 | > 100 | 3.4 | 0.7 | 
3 | CCOC(=O)c1cc(C#N)c(N2CCC(C(=O)NS(=O)(=O)Cc3ccccc3)CC2)nc1C | 1 |  |  |  | 2.8 |  | IC50 (P2Y purinoceptor 12 [1]): 0.022 µM; Papp (Caco-2): 1 ×10⁻⁶ cm/s; IC50 (P2Y purinoceptor 12 [2]): 0.009 µM; IC50 (P2Y purinoceptor 12 [3]): 0.044 µM; half-life [5]: 5.1 h; Activity [7]: inactive; ID80 (Canis familiaris [10]): 0.44 µmol/kg/min; Activity [12]: inactive; ID80 (Canis familiaris [14]): 0.009 µmol/kg/min; AUC [15]: 5.9 µM·h; Activity (Canis familiaris [19]): Non-toxic; Activity [16]: inactive; Activity (Canis familiaris [20]): Non-toxic; IC50 (P2Y purinoceptor 12 [17]): 0.014 µM
4 | CCCC(=O)c1cc(C#N)c(N2CCC(C(=O)NS(=O)(=O)Cc3ccccc3)CC2)nc1CF |  | < 0.1 | 0.093 |  | 2.7 |  | 
5 | CCCC(=O)c1cc(C#N)c(N2CCC(C(=O)NS(=O)(=O)Cc3ccccc3)CC2)nc1CCC |  | 1.2 | 0.27 |  | 3.7 |  | 
6 | CCCC(=O)c1cc(C#N)c(N2CCC(C(=O)NS(=O)(=O)Cc3ccccc3)CC2)nc1SC | > 1.92 | 0.3 | 0.017 | > 100 | 3.1 |  | 
7 | CCCC(=O)c1cc(C#N)c(N2CCC(C(=O)NS(=O)(=O)C3(c4ccccc4)CC3)CC2)nc1C | > 1.92 |  | 0.16 | > 100 | 3.9 | 5.2 | 
8 | CCCC(=O)c1cc(C#N)c(N2CCC(C(=O)NS(=O)(=O)Cc3ccccc3)CC2)nc1C | > 1.92 | 0.32 | 0.1 | > 100 | 2.8 | 0.3 | 
9 | CCCC(=O)c1cc(C#N)c(N2CCC(C(=O)NS(=O)(=O)C(C)c3ccccc3)CC2)nc1C (racemic) | > 1.92 |  | 0.19 | > 100 | 3.3 | 1 | 
10 | CCCC(=O)c1cc(C#N)c(N2CCC(C(=O)NS(=O)(=O)Cc3ccc(F)cc3F)CC2)nc1C | > 1.92 |  | 0.042 | > 100 | 3 | 0.3 | 
11 | CCCC(=O)c1cc(C#N)c(N2CCC(C(=O)NS(=O)(=O)Cc3ccc(C)cc3)CC2)nc1C | > 1.92 |  | 0.059 | > 100 | 3.4 | 1.4 | 
12 | CCCC(=O)c1cc(C#N)c(N2CCC(C(=O)NS(=O)(=O)Cc3ccccc3Cl)CC2)nc1C | > 1.92 |  | 0.27 | > 100 | 3.1 | 0.4 | 
13 | CCCC(=O)c1cc(C#N)c(N2CCC(C(=O)NS(=O)(=O)Cc3ccccc3)CC2)nc1OC |  |  |  |  | 3 |  | 
14 | CCCC(=O)c1cc(C#N)c(N2CCC(C(=O)NS(=O)(=O)Cc3ccc(Cl)cc3)CC2)nc1C | > 1.92 |  | 0.057 | > 100 | 3.4 | 0.4 | 
